Tests used:
Experiment in all cases: HPAEC-PAD product analysis
LntA (LntAHis) = biological target: T1, LntA (LntAHis) (Bifidobacterium breve, UniProt D4BMY8); type: biochemical; settings: 20 mM MOPS pH 7.0, 37 °C, 24 h, 1 mg/ml substrate
T1 construct: gene BIFBRE_03435; GH42 beta-galactosidase; purified His-tagged protein

NahA (NahAHis) = biological target: T2, NahA (NahAHis) (Bifidobacterium breve, UniProt D4BR02); type: biochemical; settings: MOPS pH 7.0, 37 °C; lacto-N-triose made in situ from LNT or LNnT by LntA, LntA heat-denatured before NahA addition
T2 construct: gene BIFBRE_04532; GH20 beta-N-acetylhexosaminidase; N-terminal His10 tag; gene of 660 codons; expressed in Lactococcus lactis NZ9000
T2 sequence (D4BR02 entry or part of it): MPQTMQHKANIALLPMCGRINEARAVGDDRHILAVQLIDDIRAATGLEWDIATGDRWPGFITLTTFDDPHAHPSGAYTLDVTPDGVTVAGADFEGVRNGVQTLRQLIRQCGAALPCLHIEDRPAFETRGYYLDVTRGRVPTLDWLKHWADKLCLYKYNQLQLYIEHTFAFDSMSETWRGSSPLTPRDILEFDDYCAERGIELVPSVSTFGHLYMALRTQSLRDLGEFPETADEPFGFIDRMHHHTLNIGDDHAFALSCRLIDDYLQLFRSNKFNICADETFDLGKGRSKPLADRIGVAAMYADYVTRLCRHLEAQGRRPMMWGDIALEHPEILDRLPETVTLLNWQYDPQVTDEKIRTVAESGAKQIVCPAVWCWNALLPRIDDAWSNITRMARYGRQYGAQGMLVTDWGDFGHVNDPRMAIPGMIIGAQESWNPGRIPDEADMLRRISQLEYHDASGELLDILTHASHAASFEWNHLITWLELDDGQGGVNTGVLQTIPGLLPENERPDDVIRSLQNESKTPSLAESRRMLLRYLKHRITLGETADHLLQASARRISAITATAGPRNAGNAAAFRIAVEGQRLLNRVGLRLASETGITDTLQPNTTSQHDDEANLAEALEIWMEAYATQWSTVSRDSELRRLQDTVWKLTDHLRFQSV

LacZ6 (LacZ6His) = biological target: T3, LacZ6 (LacZ6His) (Bifidobacterium breve, UniProt D4BR09); settings: 20 mM MOPS pH 7.0, 37 °C, 24 h, 1 mg/ml substrate
T3 construct: gene BIFBRE_04539
T3 sequence (D4BR09 1-1045): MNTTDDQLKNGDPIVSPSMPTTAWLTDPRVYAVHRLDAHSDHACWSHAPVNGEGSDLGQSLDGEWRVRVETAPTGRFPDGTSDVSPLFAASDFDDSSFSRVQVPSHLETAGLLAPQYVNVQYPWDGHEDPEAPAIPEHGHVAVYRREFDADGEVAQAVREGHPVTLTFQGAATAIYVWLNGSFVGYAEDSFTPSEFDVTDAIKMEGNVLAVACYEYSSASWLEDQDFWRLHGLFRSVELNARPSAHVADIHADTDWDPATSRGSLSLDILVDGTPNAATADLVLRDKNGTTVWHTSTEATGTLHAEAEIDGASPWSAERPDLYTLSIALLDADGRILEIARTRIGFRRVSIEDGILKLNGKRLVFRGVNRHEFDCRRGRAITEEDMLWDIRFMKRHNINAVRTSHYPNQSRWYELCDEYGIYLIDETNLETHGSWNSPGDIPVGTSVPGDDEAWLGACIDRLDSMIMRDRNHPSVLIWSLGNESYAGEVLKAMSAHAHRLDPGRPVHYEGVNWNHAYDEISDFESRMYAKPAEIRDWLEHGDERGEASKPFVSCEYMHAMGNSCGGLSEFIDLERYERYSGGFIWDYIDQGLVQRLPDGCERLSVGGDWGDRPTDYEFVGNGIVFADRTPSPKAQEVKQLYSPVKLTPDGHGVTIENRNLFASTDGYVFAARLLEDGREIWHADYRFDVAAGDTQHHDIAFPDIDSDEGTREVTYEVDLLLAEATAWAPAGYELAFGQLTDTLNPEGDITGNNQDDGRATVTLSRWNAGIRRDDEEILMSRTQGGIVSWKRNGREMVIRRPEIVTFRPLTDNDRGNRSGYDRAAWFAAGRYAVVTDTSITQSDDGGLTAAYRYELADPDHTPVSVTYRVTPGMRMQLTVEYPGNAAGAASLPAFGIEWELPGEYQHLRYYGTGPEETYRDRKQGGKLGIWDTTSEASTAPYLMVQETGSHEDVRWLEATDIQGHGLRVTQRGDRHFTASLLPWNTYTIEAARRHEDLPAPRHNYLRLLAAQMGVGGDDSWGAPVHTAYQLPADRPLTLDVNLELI

T1 sequence (D4BMY8 1-691): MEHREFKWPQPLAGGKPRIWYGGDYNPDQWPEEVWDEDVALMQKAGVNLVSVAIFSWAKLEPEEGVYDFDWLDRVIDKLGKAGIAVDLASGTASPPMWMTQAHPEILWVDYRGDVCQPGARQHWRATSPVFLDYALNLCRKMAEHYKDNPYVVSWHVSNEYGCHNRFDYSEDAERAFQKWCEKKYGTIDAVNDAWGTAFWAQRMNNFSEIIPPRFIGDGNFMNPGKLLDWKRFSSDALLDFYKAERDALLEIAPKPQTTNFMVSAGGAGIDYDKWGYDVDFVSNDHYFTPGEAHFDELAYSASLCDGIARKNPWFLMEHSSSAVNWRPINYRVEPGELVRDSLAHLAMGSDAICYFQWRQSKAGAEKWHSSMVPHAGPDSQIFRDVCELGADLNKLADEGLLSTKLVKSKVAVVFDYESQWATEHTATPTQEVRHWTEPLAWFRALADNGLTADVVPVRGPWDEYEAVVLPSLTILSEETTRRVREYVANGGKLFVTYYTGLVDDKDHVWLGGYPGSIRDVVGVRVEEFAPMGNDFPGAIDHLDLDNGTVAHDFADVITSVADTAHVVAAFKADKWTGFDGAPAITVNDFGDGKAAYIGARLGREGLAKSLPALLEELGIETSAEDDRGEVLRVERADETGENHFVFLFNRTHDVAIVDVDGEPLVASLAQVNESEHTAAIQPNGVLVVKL

CC(=O)N[C@H]1[C@H](O[C@H]2[C@@H](O)[C@@H](CO)O[C@@H](O[C@H]3[C@H](O)[C@@H](O)C(O)O[C@@H]3CO)[C@@H]2O)O[C@H](CO)[C@@H](O)[C@@H]1O[C@@H]1O[C@H](CO)[C@H](O)[C@H](O)[C@H]1O (stereo partly shown) [LNT, lacto-N-tetraose] was tested, and the HPAEC-PAD product analysis (LntA (LntAHis)) was “Purified LntAHis was shown to remove the galactose moiety at the non-reducing end”.
For CC(=O)N[C@H]1[C@H](O[C@H]2[C@@H](O)[C@@H](CO)O[C@@H](O[C@H]3[C@H](O)[C@@H](O)C(O)O[C@@H]3CO)[C@@H]2O)O[C@H](CO)[C@@H](O)[C@@H]1O (stereo partly shown) [lacto-N-triose], the HPAEC-PAD product analysis (NahA (NahAHis)) was “Lacto-N-triose is then hydrolysed by NahA, liberating Lactose and GlcNAc”.
In the case of CC(=O)N[C@H]1[C@H](O[C@H]2[C@@H](O)[C@@H](CO)O[C@@H](O[C@H]3[C@H](O)[C@@H](O)C(O)O[C@@H]3CO)[C@@H]2O)O[C@H](CO)[C@@H](O[C@@H]2O[C@H](CO)[C@H](O)[C@H](O)[C@H]2O)[C@@H]1O (stereo partly shown) [LNnT, lacto-N-neotetraose], the HPAEC-PAD product analysis (LacZ6 (LacZ6His)) is reported as “Purified LacZ2His and LacZ6His were, under the conditions applied, also capable of hydrolysing LNnT” and the HPAEC-PAD product analysis (LntA (LntAHis)) is reported as “Purified LntAHis was capable of removing the galactose moiety at the non-reducing end of LNnT”.
